The record followed here is ChEMBL document CHEMBL5223113, “Several non-salt and solid thienopyridine derivatives as oral P2Y12 receptor inhibitors with good stability” (Bioorg Med Chem Lett, 2022).

The nature of data set [1]: Stability in human plasma assessed as compound remaining measured at 45 mins relative to control. It counts as ADME, cell-free. Particulars: read-out: Stability.
Data set [2] is filed under the species Rattus norvegicus. As to the kind of experiment: animal or person. Particulars: Platelet, read-out: INH.
Description: Anti-platelet activity against ADP-induced platelet aggregation in rat assessed as inhibition of platelet aggregation at 5 mg/kg relative to control
Data set [3] in a line: Stability in human plasma assessed as compound remaining measured at 120 mins relative to control. It counts as ADME, cell-free. Particulars: read-out: Stability.
The test system of data set [4] is Rattus norvegicus. The data set can be described thus: Inhibition of thrombosis in anteriovenous bypassed rat at 10 mg/kg relative to control. It counts as functional.
The species entered for data set [5] is Rattus norvegicus. The data set can be described thus: animal or person. Particulars: Platelet, read-out: INH. This is another data set of the same source.
Description: Anti-platelet activity against ADP-induced platelet aggregation in rat assessed as inhibition of platelet aggregation at 2.5 mg/kg relative to control
For data set [6], the system named is Rattus norvegicus. The data set can be described thus: Inhibition of thrombosis in anteriovenous bypassed rat at 30 mg/kg relative to control. It counts as functional.
Data set [7] in a line: Stability in human plasma assessed as compound remaining measured at 30 mins relative to control. The format is ADME, cell-free. Particulars: read-out: Stability.
A short description of data set [8]: Stability in human plasma assessed as compound remaining measured at 10 mins relative to control. The format is ADME, cell-free. Particulars: read-out: Stability.
Data set [9] is described as follows: Stability in human plasma assessed as compound remaining measured at 5 mins relative to control. It counts as ADME, cell-free. Particulars: read-out: Stability.
Data set [10] can be described thus: Stability in human plasma assessed as compound remaining measured at 60 mins relative to control. The format is ADME, cell-free. Particulars: read-out: Stability.
Data set [11] in a line: Stability in human plasma assessed as compound remaining measured at 90 mins relative to control. It counts as ADME, cell-free. Particulars: read-out: Stability.
The nature of data set [12]: Stability in human plasma assessed as compound remaining measured at 20 mins relative to control. The format is ADME, cell-free. Particulars: read-out: Stability.
Data set [13] is filed under the species Rattus norvegicus. The data set can be described thus: animal or person. Particulars: Platelet, read-out: INH. The source holds these as a separate data set.
Description: Anti-platelet activity against ADP-induced platelet aggregation in rat assessed as inhibition of platelet aggregation at 10 mg/kg relative to control
The test system of data set [14] is Rattus norvegicus. The data set can be described thus: Inhibition of thrombosis in anteriovenous bypassed rat at 1 mg/kg relative to control. The format is functional.
Data set [15] concerns Rattus norvegicus. As to the kind of experiment: Inhibition of thrombosis in anteriovenous bypassed rat at 0.3 mg/kg relative to control. The format is functional.
For data set [16], the system named is Rattus norvegicus. The data set can be described thus: Inhibition of thrombosis in anteriovenous bypassed rat at 0.1 mg/kg relative to control. Particulars: read-out: INH.
Data set [17] deals with Rattus norvegicus. The data set can be described thus: Anti-platelet activity against ADP-induced platelet aggregation in rat assessed as inhibition of platelet aggregation at 1 mg/kg relative to control. It counts as functional.
The nature of data set [18]: Toxicity in beagle dog assessed as vomiting at 1000 mg/kg oral gavage single dose. It counts as organism-based, Canis lupus familiaris. Particulars: in vivo.
A short description of data set [19]: Toxicity in beagle dog assessed as atrophy of hepatocyte at 1000 mg/kg oral gavage single dose. The format is organism-based, Canis lupus familiaris. Particulars: hepatocytes.
Data set [20] deals with Rattus norvegicus. As to the kind of experiment: Inhibition of thrombosis in anteriovenous bypassed rat at 3 mg/kg relative to control. The format is functional.
The species named for data set [21] is Rattus norvegicus. As to the kind of experiment: Inhibition of thrombosis in anteriovenous bypassed rat. The format is functional.
In data set [22] the test system is Rattus norvegicus. The data set can be described thus: Anti-platelet activity against ADP-induced platelet aggregation in rat assessed as inhibition of platelet aggregation at 0.5 mg/kg relative to control. The format is functional.
The nature of data set [23]: Toxicity in rat assessed as bleeding time by measuring ratio of ED200 to ED50 ratio by tail cutting assay. Particulars: in vivo.
Data set [24] is described as follows: Toxicity in rat assessed as bleeding time by tail cutting assay. Particulars: in vivo.
The subject of data set [25] is Rattus norvegicus. As to the kind of experiment: Anti-platelet activity against ADP-induced platelet aggregation in rat assessed as inhibition of platelet aggregation at 0.25 mg/kg relative to control. The format is functional.
Data set [26] deals with Rattus norvegicus. As to the kind of experiment: Anti-platelet activity against ADP-induced platelet aggregation in rat assessed as inhibition of platelet aggregation at 4 mg/kg relative to control. It counts as functional.
For data set [27], the system named is Rattus norvegicus. As to the kind of experiment: Anti-platelet activity against ADP-induced platelet aggregation in rat assessed as inhibition of platelet aggregation at 2 mg/kg relative to control. The format is functional.

Regarding `COC(=O)[C@H](c1ccccc1Cl)N1CCc2sccc2C1` [CLOPIDOGREL], the remaining at 0.75 h in data set [1] amounted to 101%. Moreover, the inhibition in vivo at 5 mg/kg in the data set listed under Rattus norvegicus [2] came out at 59.7%. In addition, the remaining at 2 h in [3] came out at 96%. For the same compound, the results for the inhibition in vivo at 10 mg/kg with Rattus norvegicus [4] and in the data set listed under Rattus norvegicus [13] were 41.5% and 90.5%, respectively. The inhibition in vivo at 2.5 mg/kg in the data set filed under Rattus norvegicus [5] worked out at 26.5%. Besides, in the data set with Rattus norvegicus [6], the inhibition in vivo at 30 mg/kg was found to be 72.6%. Moreover, in [7], the remaining at 0.5 h stood at 104%. Moreover, the remaining at 10 min in data set [8] worked out at 102%. Moreover, in [9], the remaining at 5 min is 106%. Further, in [10], the remaining at 1 h came to 100%. Also, in data set [11], the remaining at 1.5 h came out at 94%. For the same compound, the remaining at 20 min in [12] was determined as 100%.

The ED50 is the dose that gives a 50% effect, or the effect in half of the subjects. A lower ED50 goes with greater potency. Turning to `CC(=O)Oc1cc2c(s1)CCN(C(C(=O)C1CC1)c1ccccc1F)C2` (stereo unspecified) [PRASUGREL], the inhibition in vivo at 1 mg/kg in the data set with Rattus norvegicus [14] amounted to 35.7%; in the data set on Rattus norvegicus [17] it was 13.3%. The compound also showed an inhibition in vivo at 0.3 mg/kg in the data set on Rattus norvegicus [15] of 9%. In the data set with Rattus norvegicus [16], the inhibition in vivo at 0.1 mg/kg was determined as 6%. Further, the Activity result in data set [18] and in data set [19] was “Toxic” each time. The compound also registered an inhibition in vivo at 3 mg/kg with Rattus norvegicus [20] of 70.2%. Also, in the data set filed under Rattus norvegicus [21], the 50% effective dose (ED50) was 11.8 mg/kg. The inhibition in vivo at 0.5 mg/kg in the data set with Rattus norvegicus [22] came out at 37.8%. For the same compound, the selectivity ratio in data set [23] turned out to be 0.838. The ED200 in [24] was determined as 0.513 mg/kg. For the same compound, the inhibition in vivo at 0.25 mg/kg in the data set on Rattus norvegicus [25] turned out to be 13.3%.

For `C=C/C=C/C(=O)Oc1cc2c(s1)CCN([C@H](C(=O)OC)c1ccccc1Cl)C2`, the inhibition in vivo at 1 mg/kg in the data set with Rattus norvegicus [17] is 44%. For the same compound, in the data set on Rattus norvegicus [26], the inhibition in vivo at 4 mg/kg amounted to 100%. Further, the inhibition in vivo at 2 mg/kg with Rattus norvegicus [27] stood at 97.6%.

On to `CCC/C=C/C(=O)Oc1cc2c(s1)CCN([C@H](C(=O)OC)c1ccccc1Cl)C2`, for which the inhibition in vivo at 1 mg/kg in the data set with Rattus norvegicus [17] came out at 52.8%. Besides, in the data set with Rattus norvegicus [27], the inhibition in vivo at 2 mg/kg was found to be 74.3%. For the same compound, the inhibition in vivo at 0.5 mg/kg with Rattus norvegicus [22] stood at 19.5%.
